{
  "source": "ChEMBL document CHEMBL1158706",
  "about": "“Hemiterpene glucosides with anti-platelet aggregation activities from Ilex pubescens” (2005)",
  "species_on_record": "Rattus norvegicus",
  "test": "Antiplatelet activity in Sprague-Dawley rat plasma assessed as shear induced platelet aggregation at 10 uM",
  "type": "functional",
  "data": [
    {"smiles": "CC(=O)Oc1ccccc1C(=O)O", "note": "[ASPIRIN]", "values": [
      {"measurement": "Activity", "result": 44.7, "unit": "%"}
    ]},
    {"smiles": "C=C(COC(=O)/C=C/c1ccc(O)c(O)c1)C(O)CO[C@@H]1O[C@H](CO)[C@@H](O)[C@H](O)[C@H]1O", "note": "(stereo partly drawn) [PUBESCENOSIDE A]", "values": [
      {"measurement": "Activity", "result": 36.55, "unit": "%"}
    ]},
    {"smiles": "C=C(CO)C(CO[C@@H]1O[C@H](CO)[C@@H](O)[C@H](O)[C@H]1O)OC(=O)/C=C/c1ccc(O)c(O)c1", "note": "(stereo partly drawn) [PUBESCENOSIDE B]", "values": [
      {"measurement": "Activity", "result": 27.3, "unit": "%"}
    ]}
  ]
}
